Measurements as given in PMC6563050, “Involvement of TREK-1 Channel in Cell Viability of H9c2 Rat Cardiomyoblasts Affected by Bupivacaine and Lipid Emulsion” (Cells, 2019).

Target: T1, TREK-1 (TWIK-related potassium channel-1) (Rattus norvegicus, UniProt Q920B6)
T1 construct: gene Kcnk2
T1 sequence (Q920B6 1-426): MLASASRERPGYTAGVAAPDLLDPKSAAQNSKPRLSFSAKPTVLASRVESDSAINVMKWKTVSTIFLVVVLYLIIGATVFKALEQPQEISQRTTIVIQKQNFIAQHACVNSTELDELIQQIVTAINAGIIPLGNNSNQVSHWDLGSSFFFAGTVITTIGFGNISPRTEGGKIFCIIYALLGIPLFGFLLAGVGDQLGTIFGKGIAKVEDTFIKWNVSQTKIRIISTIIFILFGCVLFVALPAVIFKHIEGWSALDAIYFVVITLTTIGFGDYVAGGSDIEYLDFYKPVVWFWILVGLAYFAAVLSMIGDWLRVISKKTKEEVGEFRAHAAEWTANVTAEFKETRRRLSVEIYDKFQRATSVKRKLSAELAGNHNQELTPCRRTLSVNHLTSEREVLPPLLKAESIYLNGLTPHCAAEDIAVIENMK
Test: whole-cell and inside-out single-channel patch clamp of TREK-1 overexpressed in HEK-293 cells
Type: cell-based

CCCCN1CCCCC1C(=O)Nc1c(C)cccc1C (stereo not shown) [bupivacaine]
IC50: 302 ± 17.6 µM
